Source: patent US20240287074A1, “SALTS AND CRYSTALS” (Kinoxis Therapeutics Pty Ltd, priority 2020, published 2024)
Entries after “also recorded” stand apart in the source; their conditions may differ. Where a name gives a salt, the structure may show the parent alone.

Key:
Type in all cases: physicochemical
[1] = 1-week stability studies (XRPD, HPLC); settings: 1 week; ambient temperature, light and humidity; 40° C./75% RH; 80° C.
Experimental: The isolated 1-methyl-1,4,5,10-tetrahydropyrazolo[3,4-b][1,5]benzodiazepine freebase was characterized by TG/DTA, DSC, DVS with post-DVS, XRPD, HPLC, ^1H NMR and LC-MS, as per the methods detailed above. The 1-methyl-1,4,5,10-tetrahydropyrazolo[3,4-b][1,5]benzodiazepine freebase was stored at 40° C./75% relative humidity (RH) for 1 week to determine the stability of the material at increased RH and to identify potential hydrate formation.
One-week stability studies were conducted on the freebase (example 1), phosphate form 1 (example 3) and L-tartrate form 1 (example 5) salts using the following procedures: • Approximately 20 mg of each form was weighed into 3×2 mL glass vials. • One vial for each form was stored under the following conditions for 1-week: • 1. Ambient temperature, light and humidity (unsealed vial) • 2. 40° C./75% RH (unsealed vial) • 3. 80° C. (sealed vial) • The samples were collected after 1-week and observations were made. • The solids were analyzed by XRPD and HPLC.

[2] = Hydration studies in methanol/water mixtures; settings: MeOH/water mixtures, water activity 0.2, 0.6, 0.8, about 24 hours
Experimental: (§1) The following procedure was used during the hydration studies: • Approximately 20 mg of phosphate form 1 (Example 3) and L-tartrate form 1 (Example 5) were weighed into 2 mL glass vials. • Selected methanol/deionized water mixtures (see Table 5) were added to each sample in 100 μL aliquots until a mobile slurry was observed. • The slurries were agitated at ambient temperature for about 24 hours. • The slurries were collected and filtered via centrifugation. • The isolated solids were analyzed by XRPD. • The pH of the mother liquors were recorded.

[3] = Salt disproportionation studies in deionized water; settings: about 24 hours
Experimental: as §1, with “salt disproportionation” for “hydration”, “Deionized” for “Selected methanol/deionized”, “was” for “mixtures (see Table 5) were”

changes in form by XRPD [1]: no changes in form
change in XRPD pattern [2]: No change in XRPD pattern
change in XRPD pattern ([3]; material slurried in water): No change in XRPD pattern
Compound: Cn1ncc2c1Nc1ccccc1NC2 [Phosphate form 1, phosphoric acid addition salt of 1-methyl-1,4,5,10-tetrahydropyrazolo[3,4-b][1,5]benzodiazepine]
changes in purity by HPLC [1]: did not identify any significant changes in purity
hydrate formation [2]: Hydrate formation was not observed; also recorded: No evidence
salt disproportionation ([3]; slurry in deionized water, ambient temperature): Salt disproportionation was not observed; also recorded: No evidence
